Results from ChEMBL document CHEMBL4842309, “(9βH)- and 17-Nor-Pimaranes from Icacina oliviformis” (J Nat Prod, 2021).
pIC50: −log10 of the molar value. Active and inactive are the calls of the source. No cut-off for these calls is given here.

How the values were obtained:
Assay type in all cases: functional, cell-based
[1] = test system: MDA-MB-435; test: Cytotoxicity against human MDA-MB-435 cells assessed as inhibition of cell proliferation measured after 72 hrs by CellTiter 96 AQueous One Solution Cell Proliferation assay; conditions: for pIC50: MDA-MB-435, 72 h
[2] = test system: MDA-MB-231; test: Cytotoxicity against human MDA-MB-231 cells assessed as inhibition of cell proliferation measured after 72 hrs by CellTiter 96 AQueous One Solution Cell Proliferation assay; conditions: for pIC50: MDA-MB-231, 72 h
[3] = test system: OVCAR-3; test: Cytotoxicity against human OVCAR-3 cells assessed as inhibition of cell proliferation measured after 72 hrs by CellTiter 96 AQueous One Solution Cell Proliferation assay; conditions: for pIC50: OVCAR-3, 72 h
[4] = test system: A2780; test: Cytotoxicity against human A2780 cells assessed as reduction in cell viability incubated for 72 hrs by MTT assay; conditions: A2780, 72 h
[5] = test system: HL-60; test: Cytotoxicity against human HL-60 cells assessed as reduction in cell viability incubated for 72 hrs by MTT assay; conditions: HL-60, 72 h
[6] = test system: PC-3; test: Cytotoxicity against human PC-3 cells assessed as reduction in cell viability incubated for 72 hrs by MTT assay; conditions: PC-3, 72 h
[7] = test system: HepG2; test: Cytotoxicity against human HepG2 cells assessed as reduction in cell viability incubated for 72 hrs by MTT assay; conditions: HepG2, 72 h
[8] = test system: SF-295; test: Cytotoxicity against human SF-295 cells assessed as reduction in cell viability incubated for 72 hrs by MTT assay; conditions: SF-295, 72 h
[9] = test system: HCT-116; test: Cytotoxicity against human HCT-116 cells assessed as reduction in cell viability incubated for 72 hrs by MTT assay; conditions: HCT-116, 72 h
[10] = test system: HT-29; test: Cytotoxicity against human HT-29 cells measured after 72 hrs by CellTiter 96 AQueous One Solution Cell Proliferation assay; conditions: HT-29, 72 h

Compound	Activity [1]	Activity [2]	Activity [3]	pIC50 [1]	pIC50 [2]	pIC50 [3]	pIC50 [4]	further results
C[C@@]1([C@H](O)CO)CC[C@@H]2C(=C[C@H]3OC(=O)[C@@]4(C)CCC[C@@]2(C)[C@@H]34)C1	inactive	inactive	inactive					
COc1cc2c(c3occc13)C[C@@H](O)[C@@H]1[C@]23CC[C@@H](O[C@@H]2O[C@H](CO)[C@@H](O)[C@H](O)[C@H]2O)[C@@]1(C)C(=O)OC3	inactive	inactive	inactive					
C[C@@]1(C(=O)CO)CC[C@@H]2C(=C[C@H]3OC(=O)[C@]4(C)[C@H]3[C@]23CC[C@@]4(O)OC3)C1				5.64	5.57	5.36	5.41	pIC50 [5]: 5.68; pIC50 [6]: 5.44; pIC50 [7]: 5.24; pIC50 [8]: 5.66; pIC50 [9]: 5.77
C[C@@]12CC[C@@H]3C(=C[C@H]4OC(=O)[C@]5(C)[C@H]4[C@]34CC[C@@]5(O)OC4)[C@]1(O)OC[C@H]2O				5.55	5.47	5.25	5.77	pIC50 [10]: 5.38
CO[C@@]12OC[C@@H](O)[C@]1(C)CC[C@@H]1C2=C[C@H]2OC(=O)[C@]3(C)[C@H]2[C@]12CC[C@@]3(O)OC2				5.44	5.40	5.20		
COc1cc2c(c3occc13)C[C@H]1OC(=O)[C@]3(C)[C@H]1[C@@]21CO[C@]3(O)[C@@H](O[C@@H]2O[C@H](CO)[C@@H](O)[C@H](O)[C@H]2O)C1	inactive	inactive	inactive					
